The values below come from ChEMBL document CHEMBL1156511, “Suppressor mutations in the transmembrane segments of P-glycoprotein promote maturation of processing mutants and disrupt a subset of drug-binding sites” (J Biol Chem, 2007).

pEC50, pIC50: −log10 of the molar value. Activity calls are given as the source filed them. The calls are words filed in the database; no cut-off is given here. A value given as a limit tells only on which side of the number the result lay.

Format in all cases: cell-based
Data set [1] has as its system HEK293. Kind of data set: Inhibition of cross-linking of human Pgp TM1 L65R/TM6 L339C/TM7 F728 mutant expressed in HEK293 cells assessed as drug level causing 50% inhibition of cross linking by immunoblot.
In data set [2] the test system is HEK293. Kind of data set: Inhibition of cross-linking of human Pgp TM6 L339C/TM7 F728C mutant expressed in HEK293 cells assessed as drug level causing 50% inhibition of cross linking by immunoblot.
Data set [3] deals with HEK293. Kind of data set: Activation of ATPase activity of human Pgp TM7 Cys728 mutant expressed in HEK293 cells at 3 mM relative to control.
Data set [4] concerns the target ATP-dependent translocase ABCB1 (Homo sapiens, UniProt P08183, M197C). In words: Increase in ATPase activity of human histidine-tagged Pgp TM3 M197C mutant expressed in HEK293 cells at 2 mM relative to control. The settings on record: hek293, 2000 µM.
Data set [5] addresses T1, ATP-dependent translocase ABCB1 (Homo sapiens, UniProt P08183, T199C). Kind of data set: Activation of ATPase activity of human histidine-tagged Pgp TM3 T199C mutant expressed in HEK293 cells assessed as drug level causing maximal activation.
For data set [6], the target named is ATP-dependent translocase ABCB1 (Homo sapiens, UniProt P08183, V206C). Kind of data set: Increase in ATPase activity of human histidine-tagged Pgp TM3 V206C mutant expressed in HEK293 cells at 2 mM relative to control. Particulars: hek293, 2000 µM.
The target of data set [7] is ATP-dependent translocase ABCB1 (Homo sapiens, UniProt P08183, T209C). Kind of data set: Increase in ATPase activity of human histidine-tagged Pgp TM3 T209C mutant expressed in HEK293 cells at 2 mM relative to control. The settings on record: hek293, 2000 µM.
Data set [8] addresses ATP-dependent translocase ABCB1 (Homo sapiens, UniProt P08183, Q195C). Kind of data set: Increase in ATPase activity of human histidine-tagged Pgp TM3 Q195C mutant expressed in HEK293 cells at 2 mM relative to control. Particulars: hek293, 2000 µM.
For data set [9], the target named is ATP-dependent translocase ABCB1 (Homo sapiens, UniProt P08183, I190C). In words: Increase in ATPase activity of human histidine-tagged Pgp TM3 I190C mutant expressed in HEK293 cells at 2 mM relative to control. The settings on record: hek293, 2000 µM.
Data set [10] addresses ATP-dependent translocase ABCB1 (Homo sapiens, UniProt P08183, I205C). Kind of data set: Increase in ATPase activity of human histidine-tagged Pgp TM3 I205C mutant expressed in HEK293 cells at 2 mM relative to control. The settings on record: hek293, 2000 µM.
For data set [11], the target named is T2, ATP-dependent translocase ABCB1 (Homo sapiens, UniProt P08183, C137A/C431A/C717A/C956A/C1074A/C1125A/C1227A). In words: Increase in ATPase activity of human histidine-tagged Pgp Cys-less mutant expressed in HEK293 cells at 2 mM relative to control. The settings on record: hek293, 2000 µM.
T2 sequence (P08183 whole entry C137A/C431A/C717A/C956A/C1074A/C1125A/C1227A): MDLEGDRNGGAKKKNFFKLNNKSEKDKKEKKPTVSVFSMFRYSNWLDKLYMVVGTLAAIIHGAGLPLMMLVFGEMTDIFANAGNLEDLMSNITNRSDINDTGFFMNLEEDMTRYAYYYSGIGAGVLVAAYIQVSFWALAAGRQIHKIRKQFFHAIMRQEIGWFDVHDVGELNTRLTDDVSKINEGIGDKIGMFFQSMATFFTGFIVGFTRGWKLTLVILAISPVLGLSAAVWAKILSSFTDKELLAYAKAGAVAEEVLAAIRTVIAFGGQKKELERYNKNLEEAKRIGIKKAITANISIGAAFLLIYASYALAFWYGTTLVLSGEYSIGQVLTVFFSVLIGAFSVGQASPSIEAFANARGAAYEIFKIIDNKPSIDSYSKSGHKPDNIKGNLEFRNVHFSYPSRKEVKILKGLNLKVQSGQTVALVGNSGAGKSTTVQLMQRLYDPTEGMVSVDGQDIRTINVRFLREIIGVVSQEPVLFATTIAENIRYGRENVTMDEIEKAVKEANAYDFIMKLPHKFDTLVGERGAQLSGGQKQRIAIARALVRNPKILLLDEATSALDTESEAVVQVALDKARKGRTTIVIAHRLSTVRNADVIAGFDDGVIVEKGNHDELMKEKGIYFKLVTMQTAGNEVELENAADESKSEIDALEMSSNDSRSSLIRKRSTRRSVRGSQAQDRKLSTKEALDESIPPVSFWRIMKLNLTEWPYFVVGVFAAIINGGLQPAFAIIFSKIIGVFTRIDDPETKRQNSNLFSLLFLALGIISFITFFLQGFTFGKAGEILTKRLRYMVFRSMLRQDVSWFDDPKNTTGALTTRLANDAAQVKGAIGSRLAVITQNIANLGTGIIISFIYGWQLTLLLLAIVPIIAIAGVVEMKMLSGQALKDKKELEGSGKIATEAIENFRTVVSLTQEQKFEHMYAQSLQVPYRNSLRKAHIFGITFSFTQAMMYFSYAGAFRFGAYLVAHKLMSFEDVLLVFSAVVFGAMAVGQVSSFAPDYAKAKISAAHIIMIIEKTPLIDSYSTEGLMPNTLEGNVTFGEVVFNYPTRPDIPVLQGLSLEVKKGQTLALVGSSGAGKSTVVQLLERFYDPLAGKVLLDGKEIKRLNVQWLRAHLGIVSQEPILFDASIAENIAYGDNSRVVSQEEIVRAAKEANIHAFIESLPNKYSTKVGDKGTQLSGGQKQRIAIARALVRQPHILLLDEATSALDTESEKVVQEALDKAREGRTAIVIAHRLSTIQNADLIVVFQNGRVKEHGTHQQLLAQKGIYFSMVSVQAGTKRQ
Data set [12] concerns the target ATP-dependent translocase ABCB1 (Homo sapiens, UniProt P08183, G203C). Kind of data set: Increase in ATPase activity of human histidine-tagged Pgp TM3 G203C mutant expressed in HEK293 cells at 2 mM relative to control. The settings on record: hek293, 2000 µM.
Data set [13] addresses T1, ATP-dependent translocase ABCB1. In words: Activation of ATPase activity of human histidine-tagged Pgp TM3 T199C mutant expressed in HEK293 cells assessed as drug level causing half-maximal activation. Particulars: read-out: Activity.
Data set [14] has as its target ATP-dependent translocase ABCB1 (Homo sapiens, UniProt P08183, F208C). Kind of data set: Increase in ATPase activity of human histidine-tagged Pgp TM3 F208C mutant expressed in HEK293 cells at 2 mM relative to control. Particulars: hek293, 2000 µM.
For data set [15], the target named is ATP-dependent translocase ABCB1 (Homo sapiens, UniProt P08183, F193C). In words: Increase in ATPase activity of human histidine-tagged Pgp TM3 F193C mutant expressed in HEK293 cells at 2 mM relative to control. Particulars: hek293, 2000 µM.
Data set [16] addresses ATP-dependent translocase ABCB1 (Homo sapiens, UniProt P08183, M192C). Kind of data set: Increase in ATPase activity of human histidine-tagged Pgp TM3 M192C mutant expressed in HEK293 cells at 2 mM relative to control. Particulars: hek293, 2000 µM.
Data set [17] addresses ATP-dependent translocase ABCB1 (Homo sapiens, UniProt P08183, T202C). In words: Increase in ATPase activity of human histidine-tagged Pgp TM3 T202C mutant expressed in HEK293 cells at 2 mM relative to control. The settings on record: hek293, 2000 µM.
Data set [18] has as its target T1, ATP-dependent translocase ABCB1. In words: Increase in ATPase activity of human histidine-tagged Pgp TM3 mutant T199C expressed in HEK293 cells at 2 mM relative to control. Particulars: hek293, 2000 µM.
The target of data set [19] is T2, ATP-dependent translocase ABCB1. Kind of data set: Activation of ATPase activity of human histidine-tagged Cys-less Pgp mutant expressed in HEK293 cells assessed as half maximal stimulation at 110 uM. The settings on record: hek293, 110 µM.
Data set [20] concerns the target ATP-dependent translocase ABCB1 (Homo sapiens, UniProt P08183, A198C). Kind of data set: Increase in ATPase activity of human histidine-tagged Pgp TM3 A198C mutant expressed in HEK293 cells at 2 mM relative to control. Particulars: hek293, 2000 µM.
Data set [21] concerns the target ATP-dependent translocase ABCB1 (Homo sapiens, UniProt P08183, G191C). In words: Increase in ATPase activity of human histidine-tagged Pgp TM3 G191C mutant expressed in HEK293 cells at 2 mM relative to control. Particulars: hek293, 2000 µM.
For data set [22], the target named is ATP-dependent translocase ABCB1 (Homo sapiens, UniProt P08183, F194C). In words: Increase in ATPase activity of human histidine-tagged Pgp TM3 F194C mutant expressed in HEK293 cells at 2 mM relative to control. The settings on record: hek293, 2000 µM.
The target of data set [23] is ATP-dependent translocase ABCB1 (Homo sapiens, UniProt P08183, F204C). Kind of data set: Increase in ATPase activity of human histidine-tagged Pgp TM3 F204C mutant expressed in HEK293 cells at 2 mM relative to control. Particulars: hek293, 2000 µM.
Sequence of ATP-dependent translocase ABCB1 (Homo sapiens, UniProt P08183, F204C) (P08183 whole entry F204C): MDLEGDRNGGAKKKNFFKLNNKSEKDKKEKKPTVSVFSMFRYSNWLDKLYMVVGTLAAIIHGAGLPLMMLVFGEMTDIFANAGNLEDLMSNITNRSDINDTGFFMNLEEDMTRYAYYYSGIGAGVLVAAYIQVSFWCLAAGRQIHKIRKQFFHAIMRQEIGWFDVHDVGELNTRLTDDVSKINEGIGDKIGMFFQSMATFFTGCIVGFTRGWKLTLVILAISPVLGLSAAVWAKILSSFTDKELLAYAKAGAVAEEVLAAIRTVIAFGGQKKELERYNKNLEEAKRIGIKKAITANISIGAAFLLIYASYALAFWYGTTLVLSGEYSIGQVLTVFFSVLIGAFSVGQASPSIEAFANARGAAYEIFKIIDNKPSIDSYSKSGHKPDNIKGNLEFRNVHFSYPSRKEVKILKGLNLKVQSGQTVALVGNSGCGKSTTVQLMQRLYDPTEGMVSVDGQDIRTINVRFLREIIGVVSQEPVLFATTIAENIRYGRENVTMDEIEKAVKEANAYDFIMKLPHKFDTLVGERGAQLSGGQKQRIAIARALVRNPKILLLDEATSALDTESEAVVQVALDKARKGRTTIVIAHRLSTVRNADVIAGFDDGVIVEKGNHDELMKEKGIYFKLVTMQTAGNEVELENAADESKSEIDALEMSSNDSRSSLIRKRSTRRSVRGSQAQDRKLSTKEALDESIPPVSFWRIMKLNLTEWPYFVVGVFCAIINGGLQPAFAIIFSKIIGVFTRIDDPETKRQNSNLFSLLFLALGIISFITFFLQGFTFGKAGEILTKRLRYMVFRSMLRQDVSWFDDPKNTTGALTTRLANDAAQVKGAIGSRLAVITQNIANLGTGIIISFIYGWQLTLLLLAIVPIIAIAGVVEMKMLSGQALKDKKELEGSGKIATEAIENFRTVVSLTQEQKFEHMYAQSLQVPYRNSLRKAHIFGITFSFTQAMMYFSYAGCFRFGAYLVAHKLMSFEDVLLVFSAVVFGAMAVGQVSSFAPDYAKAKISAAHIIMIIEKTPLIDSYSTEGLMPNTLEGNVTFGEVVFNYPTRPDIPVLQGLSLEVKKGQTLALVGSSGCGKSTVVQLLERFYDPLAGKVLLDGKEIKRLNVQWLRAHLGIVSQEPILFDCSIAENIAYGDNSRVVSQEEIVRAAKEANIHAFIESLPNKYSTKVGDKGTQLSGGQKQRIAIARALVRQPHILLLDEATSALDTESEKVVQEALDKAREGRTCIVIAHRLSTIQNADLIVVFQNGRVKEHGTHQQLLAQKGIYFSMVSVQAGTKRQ
Data set [24] has as its target ATP-dependent translocase ABCB1 (Homo sapiens, UniProt P08183, S196C). In words: Increase in ATPase activity of human histidine-tagged Pgp TM3 S196C mutant expressed in HEK293 cells at 2 mM relative to control. Particulars: hek293, 2000 µM.
The target in data set [25] is ATP-dependent translocase ABCB1 (Homo sapiens, UniProt P08183, G207C). In words: Increase in ATPase activity of human histidine-tagged Pgp TM3 G207C mutant expressed in HEK293 cells at 2 mM relative to control. The settings on record: hek293, 2000 µM.
Data set [26] deals with ATP-dependent translocase ABCB1 (Homo sapiens, UniProt P08183, F200C). In words: Increase in ATPase activity of human histidine-tagged Pgp TM3 F200C mutant expressed in HEK293 cells at 2 mM relative to control. Particulars: hek293, 2000 µM.
Data set [27] deals with ATP-dependent translocase ABCB1 (Homo sapiens, UniProt P08183, F201C). Kind of data set: Increase in ATPase activity of human histidine-tagged Pgp TM3 F201C mutant expressed in HEK293 cells at 2 mM relative to control. The settings on record: hek293, 2000 µM.
The target of data set [28] is ATP-dependent translocase ABCB1 (Homo sapiens, UniProt P08183, F728C/I306R/L339C). In words: Inhibition of cross-linking of human Pgp TM5 I306R/TM6 L339C/TM7 F728C mutant expressed in HEK293 cells assessed as drug level causing 50% inhibition of cross linking by immunoblot. The settings on record: read-out: Activity.
Data set [29] concerns the target ATP-dependent translocase ABCB1 (Homo sapiens, UniProt P08183, F343R/F728C/L339C). In words: Inhibition of cross-linking of human Pgp TM6 F343R/TM6 L339C/TM7 F728C mutant expressed in HEK293 cells assessed as drug level causing 50% inhibition of cross linking by immunoblot. Particulars: read-out: Activity.
Data set [30] has as its target ATP-dependent translocase ABCB1 (Homo sapiens, UniProt P08183, F728C/L339C/T199R). In words: Inhibition of cross-linking of human Pgp TM3 T199R/TM6 L339C/TM7 F728C mutant expressed in HEK293 cells assessed as drug level causing 50% inhibition of cross linking by immunoblot. The settings on record: read-out: Activity.

T1 sequence (P08183 whole entry T199C): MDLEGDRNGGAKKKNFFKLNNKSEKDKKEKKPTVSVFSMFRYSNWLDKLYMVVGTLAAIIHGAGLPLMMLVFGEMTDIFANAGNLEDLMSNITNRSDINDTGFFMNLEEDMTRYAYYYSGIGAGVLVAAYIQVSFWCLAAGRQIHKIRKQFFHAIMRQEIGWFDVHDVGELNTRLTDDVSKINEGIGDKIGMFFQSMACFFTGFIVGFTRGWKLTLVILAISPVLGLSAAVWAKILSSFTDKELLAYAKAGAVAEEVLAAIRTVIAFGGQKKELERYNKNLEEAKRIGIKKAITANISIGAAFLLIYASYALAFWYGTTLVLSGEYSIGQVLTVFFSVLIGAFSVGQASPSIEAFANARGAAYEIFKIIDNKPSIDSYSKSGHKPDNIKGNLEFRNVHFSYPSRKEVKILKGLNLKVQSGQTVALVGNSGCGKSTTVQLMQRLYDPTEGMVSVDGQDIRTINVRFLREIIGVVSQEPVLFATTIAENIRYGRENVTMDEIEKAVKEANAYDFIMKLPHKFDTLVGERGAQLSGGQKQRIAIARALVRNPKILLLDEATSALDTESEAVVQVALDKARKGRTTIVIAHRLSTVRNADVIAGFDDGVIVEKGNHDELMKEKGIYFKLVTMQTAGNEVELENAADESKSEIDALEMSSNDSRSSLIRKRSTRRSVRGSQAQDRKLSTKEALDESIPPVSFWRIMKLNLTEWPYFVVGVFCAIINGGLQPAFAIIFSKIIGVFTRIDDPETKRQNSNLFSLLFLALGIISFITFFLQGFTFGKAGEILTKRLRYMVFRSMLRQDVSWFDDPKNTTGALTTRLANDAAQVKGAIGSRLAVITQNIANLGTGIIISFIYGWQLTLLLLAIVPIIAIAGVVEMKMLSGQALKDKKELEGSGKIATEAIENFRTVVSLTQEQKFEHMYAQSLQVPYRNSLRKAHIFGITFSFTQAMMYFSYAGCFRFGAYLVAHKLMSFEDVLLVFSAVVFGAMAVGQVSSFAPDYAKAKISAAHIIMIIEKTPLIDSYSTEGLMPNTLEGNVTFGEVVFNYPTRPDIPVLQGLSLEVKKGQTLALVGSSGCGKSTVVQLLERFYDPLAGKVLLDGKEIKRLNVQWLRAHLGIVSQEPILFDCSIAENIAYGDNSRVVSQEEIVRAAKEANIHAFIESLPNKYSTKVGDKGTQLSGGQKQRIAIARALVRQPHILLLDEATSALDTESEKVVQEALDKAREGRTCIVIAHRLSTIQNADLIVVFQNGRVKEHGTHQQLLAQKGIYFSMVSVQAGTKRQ
Sequence of ATP-dependent translocase ABCB1 (Homo sapiens, UniProt P08183, Q195C) (P08183 whole entry Q195C): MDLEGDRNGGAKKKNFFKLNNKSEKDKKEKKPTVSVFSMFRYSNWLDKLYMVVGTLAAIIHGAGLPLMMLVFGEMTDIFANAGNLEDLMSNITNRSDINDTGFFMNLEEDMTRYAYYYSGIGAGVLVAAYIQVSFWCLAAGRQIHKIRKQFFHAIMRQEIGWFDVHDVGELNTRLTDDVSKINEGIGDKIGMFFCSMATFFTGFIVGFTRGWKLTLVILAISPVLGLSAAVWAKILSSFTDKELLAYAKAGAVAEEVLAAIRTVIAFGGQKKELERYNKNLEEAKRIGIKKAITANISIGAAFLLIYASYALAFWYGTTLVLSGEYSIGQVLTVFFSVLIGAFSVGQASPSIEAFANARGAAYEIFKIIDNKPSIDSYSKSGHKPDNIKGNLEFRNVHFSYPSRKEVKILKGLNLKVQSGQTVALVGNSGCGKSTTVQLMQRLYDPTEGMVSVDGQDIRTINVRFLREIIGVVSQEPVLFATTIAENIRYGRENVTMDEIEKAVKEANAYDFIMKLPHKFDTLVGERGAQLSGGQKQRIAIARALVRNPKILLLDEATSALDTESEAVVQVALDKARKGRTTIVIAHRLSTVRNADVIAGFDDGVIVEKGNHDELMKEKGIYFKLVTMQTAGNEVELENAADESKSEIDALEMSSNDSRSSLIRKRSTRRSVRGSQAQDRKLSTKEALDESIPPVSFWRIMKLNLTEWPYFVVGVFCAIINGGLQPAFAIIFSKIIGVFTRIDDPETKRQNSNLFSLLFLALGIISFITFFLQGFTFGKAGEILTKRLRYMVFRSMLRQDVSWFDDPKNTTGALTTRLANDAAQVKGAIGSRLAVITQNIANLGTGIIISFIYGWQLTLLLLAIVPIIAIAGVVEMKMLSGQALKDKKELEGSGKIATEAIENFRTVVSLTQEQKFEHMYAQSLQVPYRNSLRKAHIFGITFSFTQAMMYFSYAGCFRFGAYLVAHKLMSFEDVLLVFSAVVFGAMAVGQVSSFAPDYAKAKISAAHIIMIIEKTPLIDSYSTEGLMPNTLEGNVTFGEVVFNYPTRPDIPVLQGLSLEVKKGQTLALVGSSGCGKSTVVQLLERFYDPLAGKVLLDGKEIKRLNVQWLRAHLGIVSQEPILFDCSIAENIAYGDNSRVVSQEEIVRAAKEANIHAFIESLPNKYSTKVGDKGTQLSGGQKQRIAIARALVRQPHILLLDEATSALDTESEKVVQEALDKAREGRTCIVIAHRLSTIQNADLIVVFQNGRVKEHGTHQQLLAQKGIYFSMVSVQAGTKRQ

Regarding `CCN(CC)c1ccc2c(-c3ccccc3C(C)=O)c3ccc(=[N+](CC)CC)cc-3oc2c1`, the Activity came to 65 µM with HEK293 [1] and 88 µM in the data set on HEK293 [2].
With `COc1ccc(CC[N+](C)(CCCC(C#N)(c2ccc(OC)c(OC)c2)C(C)C)CCSS(C)(=O)=O)cc1OC` (stereo not drawn), in the data set with HEK293 [3], the result was inactive.
Take `CCN(CC)c1ccc2c(-c3ccc(S(=O)(=O)NCCSS(C)(=O)=O)cc3S(=O)(=O)O)c3ccc(=[N+](CC)CC)cc-3oc2c1.[Cl-]`: the Activity is recorded as less than 1.5 in [4]; 2 mM in data set [5]; less than 1.5 in [6]; less than 1.5 in data set [7]; less than 1.5 in data set [8]; less than 1.5 in data set [9]. Besides, the Activity in data set [10], in data set [11], in [12], in data set [14], in data set [15] and in [16] was less than 1.5 throughout. The Activity in data set [17] was less than 1.5; in [18], less than 6.7; in [19], 6.2; in data set [20] it was less than 1.5; in [21], less than 1.5; in data set [22], less than 1.5. In addition, the Activity in [23], in data set [24], in data set [25], in [26] and in [27] was less than 1.5 throughout. Besides, in [13], the pEC50 is 3.06.
With `CC[C@]1(O)C[C@@H]2CN(CCc3c([nH]c4ccccc34)[C@@](C(=O)OC)(c3cc4c(cc3OC)N(C)[C@H]3[C@@](O)(C(=O)OC)[C@H](OC(C)=O)[C@]5(CC)C=CCN6CC[C@]43[C@@H]65)C2)C1`, the Activity in the data set with HEK293 [1] was 40 µM; in the data set with HEK293 [2], 0.7 µM.
For `CCN(CC)c1ccc2c(-c3ccccc3C(=O)O)c3ccc(=[N+](CC)CC)cc-3oc2c1`, in data set [8], the Activity is given as 6.4. In addition, the pIC50 in [28] was 4.02; in data set [29], 3.49; in [30], 4.11.
